According to patent publication US20240189315A1, “Cyclic Pyridine Derivatives as cGAS Inhibitors” (Boehringer Ingelheim International GmbH, priority 2022, published 2024):
Like-named read-outs stand apart in the source and are kept apart here.

How the values were obtained:
[1] = amide bond, HATU, 25.0 °C, 1.0 h
Human cGAS enzyme = Human cGAS enzyme (Homo sapiens (Human), UniProt Q8N884); assay: Human cGAS enzyme assay (hcGAS IC50, in vitro), cGAMP formation by RapidFire MS; type: biochemical;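 further: recombinant human cGAS activated by 45 bp dsDNA with 30 µM each ATP and GTP, 90 min, cGAMP vs cyclic-di-GMP standard by MS, 8-point titration from 10 µM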
Chain of Human cGAS enzyme (Q8N884 whole entry): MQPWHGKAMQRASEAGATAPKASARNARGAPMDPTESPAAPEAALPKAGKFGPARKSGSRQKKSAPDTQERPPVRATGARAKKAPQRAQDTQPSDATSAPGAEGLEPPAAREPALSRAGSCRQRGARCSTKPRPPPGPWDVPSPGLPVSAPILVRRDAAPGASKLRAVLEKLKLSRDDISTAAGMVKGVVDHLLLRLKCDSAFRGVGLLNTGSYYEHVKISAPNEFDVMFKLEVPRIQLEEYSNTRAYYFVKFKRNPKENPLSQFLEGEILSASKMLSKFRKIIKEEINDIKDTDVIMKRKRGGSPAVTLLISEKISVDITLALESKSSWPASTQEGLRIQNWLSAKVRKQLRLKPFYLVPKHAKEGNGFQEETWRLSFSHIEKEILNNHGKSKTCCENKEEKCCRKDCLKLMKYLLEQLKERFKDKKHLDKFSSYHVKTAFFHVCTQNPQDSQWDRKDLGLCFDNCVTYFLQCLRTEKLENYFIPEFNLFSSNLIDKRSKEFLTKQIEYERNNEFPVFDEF

[2] = system: pathway directly downstream of cGAS in cGAMP-stimulated THP1-Dual cells; assay: cGAMP stimulated counter cell assay (THP1(cGAMP) IC50): IFN induction in cGAMP-stimulated THP1-Dual cells; type: cell-based, human; conditions: Homo sapiens, THP1-Dual, read-out: THP1(cGAMP) IC50
In short: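 THP1-Dual cells with IRF-driven Lucia luciferase reporter, stimulated by empty baculovirus (cGAS route) or by cGAMP (counter assay); 5000 cells/well, 8-point dilutions from 10 μM top, 1% DMSO, 18 h at 37° C. Luminescence read; IC50 by 4-parameter logistic fit against unstimulated low control.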

THP-1 = conditions: Table 3, page 67/68 of WO 2022/174012; read-out: cellular IC50-value group (IFNβ ELISA stimulated with THP-1); cited from earlier work
[3] = target: T1, cellular cGAS activity in baculovirus-stimulated THP1-Dual cells (Homo sapiens (Human), UniProt Q8N884); assay: Human cGAS cell assay (THP1(vir) IC50): IFN induction in virus-stimulated THP1-Dual cells, IRF Lucia luciferase reporter; type: cell-based; conditions: read-out: THP1(vir) IC50;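 further: Eight-point dilution series starting at 10 µM, 1% DMSO, 18 h at 37 °C, luminescence read-out, virus-free wells as 0% and DMSO-treated virus-stimulated wells as 100%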
T1 sequence (Q8N884 whole entry): as above

[4] = target: T1, cellular cGAS activity in baculovirus-stimulated THP1-Dual cells; conditions: Table 4; compounds and methyl ester prodrugs of PCT/EP2022/062480 and PCT/EP2022/062496; read-out: THP1(vir) IC50; cited from earlier work
[5] = target: T2, cellular cGAS activity in dsDNA-stimulated human whole blood (Homo sapiens (Human), UniProt Q8N884); conditions: Table 4; compounds and methyl ester prodrugs of PCT/EP2022/062480 and PCT/EP2022/062496; read-out: hWB IC50; cited from earlier work
T2 sequence (Q8N884 whole entry): as above

[6] = system: pathway directly downstream of cGAS in cGAMP-stimulated THP1-Dual cells; conditions: Table 4; compounds and methyl ester prodrugs of PCT/EP2022/062480 and PCT/EP2022/062496; cited from earlier work
[7] = target: T2, cellular cGAS activity in dsDNA-stimulated human whole blood; assay: Human whole blood assay (hWB IC50): IFNα2a production after dsDNA transfection; type: cell-based; conditions: Table 2; compounds from WO 2020/142729;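 further: IFNα-2a in plasma measured by MSD electrochemiluminescence immunoassay after 22 h at 37 °C, 8-point dilution series from 10 µM top concentration, DMSO wells as controls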
Description: 6.3 Method: Human Whole Blood Assay (Human WB IC50) For the detection of cellular cGAS activity human whole blood was stimulated by transfection with double stranded DNA. Pathway activity was monitored by measuring the IFNα2α production.
Compounds were delivered as 10 mM DMSO solution and serially diluted and transferred to the 96-well cell culture plate (Corning #3595), prefilled with 20 μl OptiMEM (Gibco, #11058-021) in each well, using an Echo acoustic dispenser. Typically, 8 concentrations were used with the highest concentration at 10 μM in the final assay volume followed by ˜1:5 dilution steps. DMSO concentration was set to 0.1% in the final assay volume. The 96-well assay plate contained 10 test compounds, and DMSO in control wells.
Collection of human whole blood from 3 or more healthy donors (male or female, no medication for 7 days except contraceptive and thyroxine) as Na-Citrate blood (e.g. 3.8% in Monovettes from Sarstedt) was conducted in parallel. Whole blood was kept at room temperature for a maximum of 3 hours after collection until use in the assay.
160 μl of the whole blood samples was transferred to each well of the 96-well assay plates filled with compound/OptiMEM. All assay plates were prepared as duplicates with blood from different donors. Blood plates were kept at room temperature for 60 minutes and continuous shaking with 450 rpm, covered with the lid, but not sealed.
20 μl OptiMEM and 9.6:1 Fugene was added to all low control wells.
After covering assay plates with area seals and the lid, blood plates were kept at room temperature for 30 minutes and continuous shaking with 450 rpm, followed by an overnight incubation of 22 h at 37° C. in the incubator, without shaking.
For the detection of IFNα-2a in human plasma, the biotinylated capture antibody (Antibody set IFNA2, Meso Scale Diagnostics #B21VH-3, including coating and capture antibody) was diluted 1:17.5 in Diluent 100 (Meso Scale Diagnostics #R50AA-4), according to the manufacturer's directions. U-Plex MSD GOLD 96-well Small Spot Strepavidin SECTOR Plates (Meso Scale Diagnostics #L45SA-5) were coated with 25 μl diluted capture antibody. Coated plates were incubated for 60 min at room temperature under continuous shaking at 700 rpm. MSD IFNα-2a plates were washed three times with 150 μl wash buffer (1×HBSS, 0.05% Tween).
After blocking the plates with 100 μl block solution/well (1×HBSS with 0.2% Tween, 2% BSA) for 60 min at room temperature and continuous shaking at 700 rpm, plates were emptied as dry as possible by dumping just before continuing with the human plasma.
Whole Blood assay plates were centrifuged at 1600 rpm for 10 minutes. 25 μl of supernatant was transferred with a pipetting robot from each whole blood plate to the corresponding IFNα-2a plate.
Plates were sealed with microplate seals and kept at room temperature again under continuous shaking at 700 rpm for two hours.
Next MSD IFNα-2a plates were washed three times with 150 μl wash buffer (1×HBSS, 0.05% Tween), before adding 25 μl MSD SULFO-TAG IFNα-2a Antibody solution (1:100 diluted in Diluent 3 (Meso Scale Diagnostics #R50AP-2) to each well of the plates.
Afterwards plates were sealed with microplate seals and kept at room temperature again under continuous shaking at 700 rpm for two hours. Finally, MSD IFNα-2a plates were washed three times with 150 μl wash buffer (1×HBSS, 0.05% Tween). 150 μl 2× Read buffer was added to each well and plates were immediately measured with the MSD Sector S600 Reader using the vendor barcode.
Data Evaluation and Calculation:
For data evaluation and calculation,% control calculation of each well was based on the mean of high (DNA stimulated control) and mean of low (unstimulated control) controls by using the following formula:
The IC50-values were calculated using the standard 4 parameter logistic regression formula.

[8] = Table 3, Compound No. 5 of WO 2022/174012
[9] = Table 2, compounds from WO 2020/142729

SMILES | IC50 [4] [nM] | IC50 [5] [nM] | IC50 [6] [nM] | also measured
C[C@H]1CN2CC[C@]1(F)c1cc(Cl)cnc1O[C@H]1C[C@@H](C(=O)OC(C)(C)C)N(C1)c1nc(nc3c1oc1ccccc13)CC(=O)NCCCC2=O | – | – | – | ring closure, yield of all isomers ([1]; from C[C@H]1CN(C(=O)CCCN)CC[C@]1(F)c1cc(Cl)cnc1O[C@H]1C[C@@H](C(=O)OC(C)(C)C)N(c2nc(CC(=O)O)nc3c2oc2ccccc23)C1, DMF, 10.0 mM): 42%
C[C@H]1CN2CC[C@]1(F)c1cc(Cl)cnc1O[C@H]1C[C@@H](C(=O)OC(C)(C)C)N(C1)c1nc(nc3c1oc1ccccc13)CC(=O)NCCOC2=O | – | – | – | ring closure, yield of all isomers ([1]; from C[C@H]1CN(C(=O)OCCN)CC[C@]1(F)c1cc(Cl)cnc1O[C@H]1C[C@@H](C(=O)OC(C)(C)C)N(c2nc(CC(=O)O)nc3c2oc2ccccc23)C1, DMA, 15.75 mM): 11.3%
Cc1nc(N2C[C@@H](CC(=O)Nc3ccc(-c4ccccc4)cc3)C[C@H]2C(=O)O)c2oc3ccccc3c2n1 [Compound 5 (BBL0100455), reference compound] | – | – | – | IC50 (Human cGAS enzyme; Table 3, Compound No. 5 of WO 2022/174012 re-tested in the applicant's assay): 55 nM; IC50 [2, 8]: > 10000 nM; IC50 (THP-1): < 1000 nM; IC50 [3, 8]: > 10000 nM
CO[C@]1(c2cc(Cl)cnc2O[C@H]2C[C@@H](C(=O)O)N(c3nc(C(F)F)nc4c3oc3ccccc34)C2)CC(C)(C)S(=O)(=O)C[C@@H]1C [Ex. 1.05 of PCT/EP2022/062496] | 44 | 135 | 13200 | –
C[C@@H]1N(c2cc(Br)cnc2O[C@H]2C[C@@H](C(=O)O)N(c3nc(C(F)(F)F)nc4c3oc3ccccc34)C2)CCOC12COC2 [Ex. 1.10 of PCT/EP2022/062480] | 91 | 33 | 16100 | –
C#Cc1cnc(O[C@H]2C[C@@H](C(=O)O)N(c3nc(C(F)(F)F)nc4c3oc3ccccc34)C2)c(N2CCOC3(COC3)[C@@H]2C)c1 [Ex. 1.12 of PCT/EP2022/062480] | 7 | 15 | 11900 | –
C[C@H]1CS(=O)(=O)CC[C@]1(F)c1cc(Cl)cnc1O[C@H]1C[C@@H](C(=O)O)N(c2nc(C(F)F)nc3c2oc2ccccc23)C1 [Ex. 1.13 of PCT/EP2022/062496] | 6 | 6 | 22500 | –
C#Cc1cnc(O[C@H]2C[C@@H](C(=O)O)N(c3nc(C(F)(F)F)nc4c3oc3ccccc34)C2)c([C@@]2(F)CCS(=O)(=O)C[C@@H]2C)c1 [Ex. 2.12 of PCT/EP2022/062496] | 8 | 8 | 21800 | –
COc1ncccc1-c1cnc(O[C@H]2C[C@@H](C(=O)O)N(c3nc(C(F)(F)F)nc4c3oc3ccccc34)C2)c(N2CCOC3(COC3)[C@@H]2C)c1 [Ex. 3.14 of PCT/EP2022/062480] | 10 | 26 | 7830 | –
C[C@@H]1N(c2cccnc2O[C@H]2C[C@@H](C(=O)O)N(c3nc(C(F)F)nc4c3oc3ccccc34)C2)CCOC12COC2 [Ex. 4.04 of PCT/EP2022/062480] | 386 | 77 | > 16600 | –
COC(=O)[C@@H]1C[C@H](Oc2ncccc2N2CCOC3(COC3)[C@@H]2C)CN1c1nc(C(F)F)nc2c1oc1ccccc12 [P01 of PCT/EP2022/062480] | 358 | 1310 | 26100 | –
C#Cc1cnc(O[C@H]2C[C@@H](C(=O)OC)N(c3nc(C(F)(F)F)nc4c3oc3ccccc34)C2)c([C@@]2(F)CCS(=O)(=O)C[C@@H]2C)c1 [P01 of PCT/EP2022/062496] | 11 | 67 | > 16600 | –
COC(=O)[C@@H]1C[C@H](Oc2ncc(Br)cc2N2CCOC3(COC3)[C@@H]2C)CN1c1nc(C(F)(F)F)nc2c1oc1ccccc12 [P02 of PCT/EP2022/062480] | 444 | 5330 | 17100 | –
COC(=O)[C@@H]1C[C@H](Oc2ncc(Cl)cc2[C@@]2(F)CCS(=O)(=O)C[C@@H]2C)CN1c1nc(C(F)F)nc2c1oc1ccccc12 [P02 of PCT/EP2022/062496] | 29 | 140 | > 16600 | –
C#Cc1cnc(O[C@H]2C[C@@H](C(=O)OC)N(c3nc(C(F)(F)F)nc4c3oc3ccccc34)C2)c(N2CCOC3(COC3)[C@@H]2C)c1 [P03 of PCT/EP2022/062480] | 188 | 1090 | 22800 | –
COC(=O)[C@@H]1C[C@H](Oc2ncc(Cl)cc2[C@@]2(OC)CC(C)(C)S(=O)(=O)C[C@@H]2C)CN1c1nc(C(F)F)nc2c1oc1ccccc12 [P03 of PCT/EP2022/062496] | 202 | 1990 | 20600 | –
COC(=O)[C@@H]1C[C@H](Oc2ncc(-c3cccnc3OC)cc2N2CCOC3(COC3)[C@@H]2C)CN1c1nc(C(F)(F)F)nc2c1oc1ccccc12 [P04 of PCT/EP2022/062480] | 67 | 2750 | > 16600 | –
CC(C)(C(=O)N[C@H]1C[C@@H](C(=O)O)N(c2nc(C(F)(F)F)nc3c2oc2ccccc23)C1)c1cn[nH]c1 [compound 58] | – | – | – | IC50 (Human cGAS enzyme; Table 2, compounds from WO 2020/142729 re-tested in the applicant's assay): 320 nM; IC50 [2, 9]: 23000 nM; IC50 [3, 9]: 21000 nM; IC50 [7]: > 9980 nM
